According to patent publication US4383114A, “Adenosine deaminase resistant antiviral purine arabinonucleosides” (priority 1981, dated 1983):
Values after ≈ are worked out from the molar mass of the structure shown. Values joined by “and” are separate entries in the source; they are usually repeats but may differ in a detail not shown here. Identical values can stand only once.

Experiments:
[1] = tested on: calf intestinal mucosa adenosine deaminase (Sigma Chemical Company); experiment: adenosine deaminase activity on Ara-A, Cyclaradine and Aristeromycin (Example 14); format: in vitro ADME; conditions: 1×10^-4 M, pH 7.5, 17.75 units/ml enzyme
From the text: The deaminated products were further identified by thin-layer chromatography using authentic samples for reference.

[2] = tested on: HSV and VV; experiment: organism not typed; format: cell-based
[3] = tested on: vaccinia virus (VV) (Strain Lederle Chorioallantoic); experiment: microbe, parasite or virus in culture; format: cell-based
[4] = toxicity in uninfected (toxicity control) or treated mice; format: in vivo, Random-bred Swiss mice, female; conditions: for Avg. Body Wt. on Day 0 / Avg. Body Wt. on Day 7 / Avg. Body Wt. on Day 14 / Avg. Body Wt. on Day 21 / Mortality: No. Dead/Total No. of Mice / mortality at 504 h: uninfected toxicity controls; for mortality at 504 h: mouse, in vivo, ip
Method: River Breeding Laboratories, Inc.
cellulose (HPC) at four different
centrations so that a single daily
volume of 0.01 ml/gm of body
The drugs were administered once
for 7 days beginning 4 hours after […]

[5] = tested on: herpes simplex virus (HSV) type 1 (strain HF); format: cell-based, herpes simplex virus type 1
[6] = tested on: calf intestinal adenosine deaminase (type III, Sigma); experiment: resistance to deamination by adenosine deaminase (Example 11); conditions: for deamination by adenosine deaminase: conditions under which ara-A is completely deaminated
[7] = tested on: adenosine deaminase; experiment: inhibition of enzymatic deamination of ara-A or adenosine; format: biochemical, calf; conditions: substrates ara-A or adenosine
[8] = cytotoxicity, growing P-388 mouse lymphoid leukemia cells in presence of drug; conditions: p-388 cells
[9] = tested on: adenosine deaminase; conditions: background statement; cited from earlier work

## Nc1ncnc2c1ncn2[C@@H]1C[C@H](CO)[C@@H](O)[C@H]1O [Aristeromycin]
[1]; 2 hours, 25° C
  conversion to deaminated product: complete conversion

## Nc1ncnc2c1ncn2[C@@H]1C[C@H](CO)[C@@H](O)[C@@H]1O (relative stereo) [cyclaradine, 9-[α-(2α,3β-Dihydroxy-4α(hydroxymethyl)cyclopentyl)]adenine]
[1]; overnight incubation
  conversion to deaminated product: no conversion to deaminated product was detected
[2]
  antiviral activity against HSV and VV: highly significant antiviral activity
[2]; read-out: approximate MED50
  EC50: ~9 µg/mL (≈ 33.9 µM)
[3]; Orthopoxvirus vaccinia, HEp-2, read-out: MED50 (minimum drug dose required for 50% inhibition of virus-induced cpe)
  EC50: 9 µg/mL (≈ 33.9 µM)
[3]; vaccinia virus, HEp-2 cells, VR ≥ 1.0 definite, 0.5-0.9 marginal to moderate, < 0.5 no apparent antiviral activity
  Virus Rating (VR): 1.5 and 1.7
[4]; 750 mg/kg/day (equimolar to ara-A 755.3 mg/kg/day)
  weight loss or apparent toxicity: no significant weight loss or apparent toxicity
[4]; 900 mg/kg/day, qd 1-7, uninfected
  lethal toxicity for uninfected animals: apparently not lethally toxic
[4]; C-Ara-A 112.5 mg/kg/day
  Avg. Body Wt. on Day 0: 21.8 gm
  Avg. Body Wt. on Day 7: 24.5 gm
  Avg. Body Wt. on Day 14: 26.5 gm
  Avg. Body Wt. on Day 21: 28.5 gm
  Mortality: No. Dead/Total No. of Mice: 0/5
  mortality at 504 h: 0%
[4]; C-Ara-A 225 mg/kg/day
  Avg. Body Wt. on Day 0: 21.8 gm
  Avg. Body Wt. on Day 7: 24.4 gm
  Avg. Body Wt. on Day 14: 26.8 gm
  Avg. Body Wt. on Day 21: 29.3 gm
  Mortality: No. Dead/Total No. of Mice: 0/5
  mortality at 504 h: 0%
[4]; C-Ara-A 450 mg/kg/day
  Avg. Body Wt. on Day 0: 21.6 gm
  Avg. Body Wt. on Day 7: 22.6 gm
  Avg. Body Wt. on Day 14: 25.9 gm
  Avg. Body Wt. on Day 21: 28.3 gm
  Mortality: No. Dead/Total No. of Mice: 0/5
  mortality at 504 h: 0%
[4]; C-Ara-A 900 mg/kg/day
  Avg. Body Wt. on Day 0: 21.8 gm
  Avg. Body Wt. on Day 7: 22.5 gm
  Avg. Body Wt. on Day 14: 25.3 gm
  Avg. Body Wt. on Day 21: 28 gm
  Mortality: No. Dead/Total No. of Mice: 0/5
  mortality at 504 h: 0%
[4]; cyclaradine 112.5 to 450 mg/kg/day, qd 1-7
  toxicity of dose levels: non-toxic
[4]; higher dose levels, mice
  tolerability compared with ara-A: obviously better tolerated than ara-A
[5]
  Virus Rating (VR): 2.2 and 3.5
[6]
  deamination by adenosine deaminase: no detectable deamination
[7]
  inhibition of enzymatic deamination: did not inhibit
[8]
  CC50: 10 µM

## Nc1ncnc2c1ncn2[C@@H]1O[C@H](CO)[C@@H](O)[C@@H]1O [ara-A, reference compound]
[1]; 2 hours, 25° C
  conversion to deaminated product: complete conversion
[4]; 755.3 mg/kg/day, qd 1-7
  mortality and weight loss: Significant mortality and severe weight loss
[4]; Ara-A 125 mg/kg/day
  Avg. Body Wt. on Day 0: 21.7 gm
  Avg. Body Wt. on Day 7: 25.4 gm
  Avg. Body Wt. on Day 14: 27.3 gm
  Avg. Body Wt. on Day 21: 29.5 gm
  Mortality: No. Dead/Total No. of Mice: 0/10
  mortality at 504 h: 0%
[4]; Ara-A 250 mg/kg/day
  Avg. Body Wt. on Day 0: 21.7 gm
  Avg. Body Wt. on Day 7: 25.1 gm
  Avg. Body Wt. on Day 14: 26.6 gm
  Avg. Body Wt. on Day 21: 29.1 gm
  Mortality: No. Dead/Total No. of Mice: 0/10
  mortality at 504 h: 0%
[4]; ara-A 125 to 250 mg/kg/day, qd 1-7
  toxicity of dose levels: non-toxic
[4]; qd 1-7 schedule, mice
  approx. LD10: ~600 mg/kg/day
[9]
  deamination by adenosine deaminase: rapidly deaminated
[6]
  deamination rate: 1 μmole/min/unit of enzyme
  deamination by adenosine deaminase: completely deaminated
[8]
  CC50: 10 µM
